Results from patent US20130274233A1, “MODULATORS OF HEDGEHOG SIGNALING PATHWAY” (priority 2012, published 2013).

Assays:
Wnt signaling activity = assay: Wnt Top-flash reporter assay; format: cell-based; details: with or without Wnt3a
Protocol: (§1) Hh activity assays were performed using ShhLightll cells, Smo/Lightll cells, SmoM2/Lightll cells, and suFU−/− mouse embryonic fibroblasts. In the suFU−/− cells, Hh activity was measured after co-transfection with Gli driven firefly luciferase and TK-renilla luciferase reporters^41. Wnt activity was measured in 293 cells co-transfected with Top-flash and TK-renilla luciferase reporters^42. Cells were cultured and treated in 96 well assay plates (Corning) and incubated with Duo-Glo luciferase substrates (Promega) to measure firefly and renilla luciferase activity sequentially using a Top Count NX Microplate Scintillation and Luminescence Counter (Perkin Elmer). The renilla luciferase signal was used to normalize the firefly reporter activity.
(§2) ShhLightII cells and SmoM2/LightII cells were cultured and treated in 96 well assay plates (Corning) and incubated with Duo-Glo luciferase substrates (Promega) to sequentially measure firefly and renilla luciferase activity. Smo, or GFP, expression plasmids were co-transfected into 3T3 cells together with a Gli-responsive firefly reporter and a TK-renilla luciferase reporter contruct to monitor effects of Smo overexpression. Co-transfection of the two reporter constructs was conducted in assays measuring Hh pathway activity in suFU−/− cells. Wnt activity was measured following co-transfection of a Top-flash and renilla luciferase reporter. In both Hh and Wnt activity assays, renilla luciferase reporter activity, or mass of protein, was used to normalize expression values. Luciferase signal was read by TopCount NX Microplate Scintillation and Luminescence Counter (Perkin Elmer). Quantitative PCR probes for Ptch1, Gli1, and β-actin were purchased from Applied Biosystems. Reactions and measurements were performed using on an Applied Biosystems 7900HT at Harvard FAS Center of System Biology. β-actin was used to normalize Ptch1 and Gil1 values.

Smo = assay: Bodipy-cyclopamine competition assay in Cos 7 cells expressing Smo; format: binding; details: for competition of Bodipy-Cyc binding to Smo: cells over-expressing Smo, 5 nM Bodipy-cyclopamine
Protocol: Cos 7 cells were transfected with a plasmid co-expressing Smo and a nuclear localized form of tagRFPT (pCIT-Smo). An empty parental construct (pCIT), and a construct that co-expresses SmoM2, were used as controls to assess specificity and background noise. Three days after transfection, cells were incubated with 5 nM Bodipy-cyclopamine, with or without other compounds for 1 hour at 37 °C. Cells were washed, fixed and stained with Hoechst. Images were collected by an Opera High Content Screen System. Bodipy fluorescence was quantified specifically for transfected cells (determined by red tagRFPT+ nucleus) using a program developed by the authors with Acapella 2.0 software. All of the images were scanned with identical microscopic settings and analyzed with the same input parameters.
Cos 7 cells were transfected with a plasmid that co-expresses Smo and a nuclear localized tagRFPT marker (pCIT-Smo). The empty parental construct (pCIT) and a construct that co-express SmoM2 were used as controls to assess specificity and background signal. Three days after transfection, cells were incubated with 5 nM Bodipy-cyclopamine, with or without additional compounds, for 1 hour at 37° C. Cells were then fixed and stained with Hoechst. Images were collected with the Opera High Content Screen System. Fluorescence values were assessed in transfected cells (red nuclei) with a program developed by the authors using Acapella 2.0 software. All of images were scanned with identical microscopic setting and analyzed with the same input parameters.

Hh pathway activity [1] = assay: Gli-luciferase reporter assay, Shh-induced Hh pathway activity (ShhLightII cells); format: cell-based
Excerpt: NIH/3T3 cells were maintained in DMEM containing 10% (v/v) calf serum, penicillin, streptomycin, and L-glutamine. HEK293, L, cos 7, and suFU−/− mouse embryonic fibroblast cells were maintained in DMEM containing 10% (v/v) fetal bovine serum, penicillin, streptomycin, and L-glutamine. Smo::EGFP, SmoM2::GFP, and Ivs::tagRFPT were cloned into pBabe to generate retroviral particles for infection. Smo::EGFP/Ivs::tagRFPT and SmoM2::GFP/Ivs::tagRFPT stable cell lines were generated through viral infection of NIH/3T3^12. A ShhLightII Gli reporter cell line was obtained from the American Type Culture Collection (ATCC) and used in luciferase reporter assays to measure Hh pathway activity. The cell line contains a stably integrated Gli-responsive Firefly luciferase reporter and a constitutive Renilla luciferase expression construct^33. Subclones expressing Smo or SmoM2 in ShhLightII cells were used for chemical epistasis analyses.
as §1, §2

Hh pathway activity [2] = assay: Priming and withdrawal of compound followed by Shh stimulation, Gli-luciferase reporter (hypersensitivity); format: cell-based; details: for hypersensitivity to Hh pathway stimulation after priming with and removal of compound, Gli-luciferase: priming 24 hours, washout, then Shh (or SAG) stimulation
Protocol: as §1
Following the removal of drug containing medium, and extensive washing, cells were stimulated with either Hh ligand, or the direct-binding Smo agonist SAG^17,18.
as §2

[3] = system: cerebellar granule neuron precursors (CGNPs) from P7 Ptch1+/− mice; assay: CGNP proliferation assay (pH3 positive cells); format: cell-based
Protocol: CGNP primary cells were isolated from P7 Ptch1+/− mice as previously reported^43 and immediately seeded in poly-D-lysine coated imaging plates (Greiner Bio-one). Compounds were applied 2 hours post seeding, for either 36 (FIG. 5a-b) or 72 hours (FIG. 5d-e). After completion of each experimental regimen, cells were fixed with 4% paraformaldehyde (Electron Microscopy Sciences), and stained with anti-pH3 antibody (Upstate; 1:100) followed by a secondary antibody (Invitrogen) and Hoechst (Invitrogen). Images were then collected using a confocal microscope. Cell proliferation, as marked by a pH3 signal, was quantified with an in-house program developed by the authors using Acapella 2.0 software. Identical microscopic settings were used in each analysis and identical input parameters were implemented for each experiment.
CGNP primary cells were isolated from P7 Ptch1+/− mice as previously reported^44. Cells were seeded in poly-D-lysine coated imaging plates (Greiner Bio-one), treatments were applied 2 hours thereafter and last for 36 hours. Cells then were fixed with 4% paraformaldehyde (Electron Microscopy Sciences), and stained with anti-pH3 antibody (Upstate; 1:100) followed by a secondary antibody (Invitrogen) and Hoechst (Invitrogen). Images were collected and cell proliferation quantified with a program developed by the authors utilizing Acapella 2.0 software. All of the images in each experiment were collected with identical microscopic settings and analyzed with identical input parameters.

SMILES	effect on Wnt pathway reporter activity (Wnt signaling activity)	competition of Bodipy-Cyc binding to Smo (Smo)	effect of co-stimulation on Shh-induced transcriptional response (Hh pathway activity [1]; 10 μM FA together with Shh)	EC50 (Hh pathway activity [2]; cells treated 24 hours, compound withdrawal prior to Shh addition, read-out: EC50 of induced response to priming)	hypersensitivity to Hh pathway stimulation after priming with and removal of compound, Gli-luciferase (Hh pathway activity [2])	effect on GDC0449 inhibition of Shh-stimulated CGNP proliferation ([3]; FA 10 μM co-administered with GDC0449)	Shh-driven CGNP proliferation ([3]; FA 10 μM with Shh)	number of proliferative pH3 positive CGNPs ([3]; FA 120 μM)	IC50 (Smo; Cos7/Smo expression, stimulus none, read-out: IC50, competition of BODIFY-cyclopamine-Smo binding)	IC50 (Hh pathway activity [1]; Mus musculus, Shh Light II, 3T3/Shh-LightII cells, stimulus Shh, read-out: IC50, inhibition of Shh-induced expression of Gli-luciferase reporter)	Shh driven hyperactivation after removal of compound, CGNP proliferation assay ([3]; CGNPs, after removal of compound)	IC50 ([3]; Mus musculus, Neuron, pH 3, Ptch ± CGNP, stimulus Shh, read-out: IC50, Shh induced cell proliferation marked by pH 3)	effect on Shh-induced pH3 marked proliferation of CGNPs ([3]; Ptch1+/− CGNPs, Shh)
CC1(C)O[C@@H]2C[C@H]3[C@@H]4C[C@H](F)C5=CC(=O)C=C[C@]5(C)[C@@]4(F)[C@@H](O)C[C@]3(C)[C@]2(C(=O)CO)O1 [FA, fluocinolone acetonide]	no change was detected	dose-dependent competition	dose-dependent enhancement	~4 µM	higher induction of pathway activity	impaired	markedly enhanced	elevated	–	–	–	–	–
CCN(CC)c1ccc(/C=N/NC(=O)c2ccc(O)cc2)cc1 [DY131]	absence of an inhibitory activity	effective competitor	–	–	no Shh driven hyperactivation	–	–	–	100 nM	2000 nM	no Shh driven hyperactivation	< 625 nM	dramatically decreased
